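In this assay, cells in 96-well plates receive the compound at five concentrations for 48 hours. Endpoints are linearly interpolated between the surrounding concentrations. GI50 is the concentration that inhibits growth by half.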 Active and inactive are the calls of the source. No stated cut-off is given here; in the data, active = GI50 up to about 1.1 µM and inactive = higher.
Key:
Assay in all cases: NCI anticancer screen, dose series, 48 h
A498 = tested on: A498
BT-549 = tested on: BT-549
COLO 205 = tested on: COLO 205
HCT-116 = tested on: HCT-116
IGROV-1 = tested on: IGROV-1
MCF7 = tested on: MCF7
MDA-MB-231 = tested on: MDA-MB-231
MDA-MB-435 = tested on: MDA-MB-435
MDA-N = tested on: MDA-N
NCI-H226 = tested on: NCI-H226
OVCAR-4 = tested on: OVCAR-4
OVCAR-5 = tested on: OVCAR-5
SF-295 = tested on: SF-295
SF-539 = tested on: SF-539
SK-MEL-28 = tested on: SK-MEL-28
SN12C = tested on: SN12C
SNB-75 = tested on: SNB-75
U-251 = tested on: U-251
UACC-62 = tested on: UACC-62
UO-31 = tested on: UO-31

Measured: GI50

COc1cc(OCc2ccc3nc(-c4ccccc4)c(N)nc3c2)cc(OC)c1OC
inactive: A498 27.1 µM | BT-549 16.1 µM | COLO 205 16.5 µM | HCT-116 3.61 µM | IGROV-1 22.2 µM | MCF7 22 µM | MDA-MB-231 25.5 µM | MDA-MB-435 19.1 µM | MDA-N 15.5 µM | NCI-H226 21.3 µM | OVCAR-4 13.8 µM | OVCAR-5 17.6 µM | SF-295 26 µM | SF-539 20.7 µM | SK-MEL-28 19.3 µM | SN12C 25.7 µM | SNB-75 19.2 µM | U-251 32.5 µM | UACC-62 13.4 µM | UO-31 10.7 µM

Oc1ccc(-c2cc(-c3cc(-c4ccc(O)cc4)no3)on2)cc1
inactive: A498 > 100 µM | BT-549 17.8 µM | COLO 205 > 100 µM | HCT-116 45.3 µM | IGROV-1 43.7 µM | MCF7 34.2 µM | MDA-MB-231 > 24.4 µM | MDA-MB-435 > 100 µM | MDA-N 36.9 µM | NCI-H226 > 75.9 µM | OVCAR-4 > 100 µM | OVCAR-5 > 53.3 µM | SF-295 35.1 µM | SF-539 4.13 µM | SK-MEL-28 > 100 µM | SNB-75 > 52.8 µM | U-251 39.9 µM | UACC-62 1.16 µM | UO-31 10.8 µM

CN(CCN)[C@H](CSSC[C@@H](c1ccccc1O)N(C)CCN)c1ccccc1O
inactive: A498 20.2 µM | BT-549 9.95 µM | COLO 205 24.8 µM | HCT-116 4.12 µM | MCF7 14.9 µM | MDA-MB-231 8.81 µM | MDA-MB-435 18 µM | MDA-N 11.9 µM | NCI-H226 11.7 µM | OVCAR-4 14.1 µM | OVCAR-5 13.9 µM | SF-295 6.85 µM | SF-539 15.1 µM | SK-MEL-28 14.3 µM | SN12C 9.48 µM | SNB-75 14.7 µM | U-251 15.9 µM | UACC-62 10 µM | UO-31 10.1 µM

O=C(O)/C(O)=C\C(=O)c1ccc(Br)cc1
inactive: A498 > 100 µM | BT-549 > 100 µM | COLO 205 > 100 µM | HCT-116 > 100 µM | IGROV-1 > 100 µM | MCF7 > 100 µM | MDA-MB-231 > 100 µM | MDA-MB-435 > 100 µM | MDA-N > 100 µM | NCI-H226 > 100 µM | OVCAR-4 > 100 µM | OVCAR-5 > 100 µM | SF-295 > 100 µM | SK-MEL-28 > 100 µM | SN12C > 100 µM | SNB-75 > 100 µM | U-251 > 100 µM | UACC-62 > 100 µM | UO-31 > 100 µM

COC1(OC)c2occc2C(=N)c2ccc(=O)oc21
inactive: A498 > 100 µM | BT-549 > 100 µM | COLO 205 > 100 µM | HCT-116 > 100 µM | IGROV-1 > 100 µM | MCF7 81.8 µM | MDA-MB-231 > 100 µM | MDA-MB-435 > 100 µM | MDA-N > 100 µM | NCI-H226 > 100 µM | OVCAR-4 > 100 µM | OVCAR-5 > 100 µM | SF-295 > 100 µM | SF-539 41.9 µM | SK-MEL-28 > 100 µM | SN12C > 100 µM | U-251 > 100 µM | UACC-62 > 100 µM | UO-31 > 100 µM

O=c1c2c3ccccc3[nH]c2c2cccc3c2n1CCC3
inactive: A498 20.7 µM | BT-549 29.6 µM | COLO 205 54 µM | HCT-116 36.6 µM | IGROV-1 84.5 µM | MCF7 35.1 µM | MDA-MB-231 28.3 µM | MDA-MB-435 54.6 µM | MDA-N 66.5 µM | NCI-H226 50.6 µM | OVCAR-5 66.7 µM | SF-295 37.7 µM | SF-539 40.1 µM | SK-MEL-28 41.8 µM | SN12C 53.1 µM | SNB-75 50.4 µM | U-251 36.1 µM | UACC-62 36.5 µM | UO-31 > 10 µM

N#CCC(=O)N/N=C\C(O)C(O)C(O)C(O)CO (centres undefined)
inactive: A498 > 100 µM | BT-549 > 100 µM | IGROV-1 > 100 µM | MCF7 > 100 µM | MDA-MB-231 > 100 µM | MDA-MB-435 > 100 µM | MDA-N > 100 µM | NCI-H226 > 100 µM | OVCAR-5 > 100 µM | SF-295 > 100 µM | SF-539 > 100 µM | SK-MEL-28 > 100 µM | SN12C > 100 µM | SNB-75 > 100 µM | UACC-62 > 100 µM | UO-31 > 100 µM

CC1(C)OC(=O)N(c2ccccc2)C12C=Cc1cccc([N+](=O)[O-])c1O2 (centres undefined)
inactive: A498 50.2 µM | BT-549 > 100 µM | COLO 205 45.1 µM | HCT-116 67 µM | IGROV-1 96.6 µM | MCF7 79.3 µM | MDA-MB-231 > 100 µM | MDA-MB-435 33 µM | MDA-N 42.5 µM | NCI-H226 > 100 µM | OVCAR-4 56.2 µM | OVCAR-5 > 100 µM | SF-295 55.1 µM | SK-MEL-28 90.8 µM | SN12C > 100 µM | SNB-75 35.6 µM | U-251 65.9 µM | UACC-62 80 µM | UO-31 45.3 µM

O=C(c1ccco1)N(C(=O)N1CCCCC1)c1ccccc1
inactive: A498 > 100 µM | BT-549 > 100 µM | COLO 205 > 100 µM | HCT-116 > 100 µM | IGROV-1 > 100 µM | MCF7 > 100 µM | MDA-MB-231 > 100 µM | MDA-MB-435 > 100 µM | MDA-N > 100 µM | NCI-H226 > 100 µM | OVCAR-5 > 100 µM | SF-539 > 100 µM | SK-MEL-28 > 100 µM | SN12C > 100 µM | U-251 > 100 µM | UACC-62 > 100 µM | UO-31 > 100 µM

CC(C)(C)OC(=O)N1CCCC1=O
inactive: A498 > 10 µM | BT-549 > 10 µM | HCT-116 > 10 µM | IGROV-1 > 10 µM | MCF7 > 10 µM | MDA-MB-231 > 10 µM | MDA-MB-435 > 10 µM | MDA-N > 10 µM | NCI-H226 > 10 µM | OVCAR-5 > 10 µM | SF-295 > 10 µM | SF-539 > 10 µM | SK-MEL-28 > 10 µM | SN12C > 10 µM | SNB-75 > 10 µM | U-251 > 10 µM | UACC-62 > 10 µM | UO-31 > 10 µM

O=C(O)CCCC(=O)Nn1c(Cc2ccc(Cl)cc2)n[nH]c1=O
inactive: A498 71.6 µM | BT-549 > 100 µM | COLO 205 > 100 µM | HCT-116 > 100 µM | IGROV-1 > 100 µM | MCF7 > 100 µM | MDA-MB-231 > 100 µM | MDA-MB-435 > 100 µM | MDA-N > 100 µM | NCI-H226 > 100 µM | OVCAR-4 > 100 µM | OVCAR-5 > 100 µM | SF-295 > 100 µM | SK-MEL-28 > 100 µM | SN12C > 100 µM | SNB-75 > 10 µM | U-251 > 100 µM | UACC-62 > 100 µM | UO-31 14.9 µM

Reference: ChEMBL document CHEMBL1201862, “PubChem BioAssay data set” (2004)
